Assay results taken from patent US6465654B2, “Process for preparing 1-substituted, 2-substituted 1H-imidazo[4, 5-c]quinoline-4-amines” (3M Innovative Properties Company, priority 1991, dated 2002).

Assays:
[1] = tested on: Herpes simplex virus Type II strain 333; experiment: Antiviral activity in guinea pigs infected with Herpes simplex virus Type II (lesion inhibition); type: in vivo; conditions: oral once daily for four days
Description: Female Hartley guinea pigs weighing 200 to 250 g are anesthetized with methoxyflurane (available under the […] from Pitman-Moore, Inc., Washington Crossing, N.J.), after which the vaginal area is swabbed with a dry cotton swab. The guinea pigs are then infected intravaginally with a cotton swab saturated with Herpes simplex virus Type II strain 333 (1×10^5 plaque forming units/mL). Guinea pigs are assigned to groups of 7 animals; one group for each treatment and one to serve as a control (vehicle treated). The compounds of the invention are formulated in water containing 5% Tween 80 (a polyoxyethylene sorbitan monooleate available from Aldrich Chemical Company, Inc., Milwaukee, Wis.). The, guinea pigs are treated orally once daily for four consecutive days starting 24 hours after infection. Antiviral activity is evaluated by comparing lesion development in compound-treated versus vehicle-treated guinea pigs. […] The maximum lesion score of each guinea pig is used to calculate the percentage lesion inhibition. The percentage lesion inhibition is calculated as follows: […]

interferon = experiment: Interferon induction in mice; type: in vivo; conditions: mouse serum
Outline: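 Mouse serum collected at 1, 2 and 4 h (separate groups), pooled, stored at −70° C, then assayed as for human-cell interferon. Values in α/β reference units/mL against a mouse MU-1-IF standard; "<" marks levels below assay sensitivity.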

interferon-α [2] = experiment: Interferon-α induction in human cells, PBM; type: cell-based; conditions: 24 hours
interferon-α [3] = experiment: Interferon-α induction in human cells, diluted whole blood; type: cell-based; conditions: 24 hours
[4] = tested on: vesicular stomatitis virus (VSV); experiment: microbe, parasite or virus in culture; type: cell-based; conditions: Vesicular stomatitis virus, read-out: VSV Yield Inhibition

| SMILES | Interferon induction in mice (interferon; oral 0.3 mg/kg, 1 hr) | Interferon induction in mice (interferon; oral 0.3 mg/kg, 2 hr) | Interferon induction in mice (interferon; oral 0.3 mg/kg, 4 hr) | Interferon induction in mice (interferon; oral 1 mg/kg, 1 hr) | Interferon induction in mice (interferon; oral 1 mg/kg, 2 hr) | Interferon induction in mice (interferon; oral 1 mg/kg, 4 hr) | Interferon induction in mice (interferon; oral 3 mg/kg, 1 hr) | Interferon induction in mice (interferon; oral 3 mg/kg, 2 hr) | Interferon induction in mice (interferon; oral 3 mg/kg, 4 hr) | Interferon induction in mice (interferon; oral 10 mg/kg, 1 hr) | Interferon induction in mice (interferon; oral 10 mg/kg, 2 hr) | Interferon induction in mice (interferon; oral 10 mg/kg, 4 hr) | Interferon-α induction (interferon-α [2]; dose concentration 0.01 μg/mL) | Interferon-α induction (interferon-α [2]; dose concentration 0.10 μg/mL) | Interferon-α induction (interferon-α [2]; dose concentration 0.50 μg/mL) | Interferon-α induction (interferon-α [2]; dose concentration 1.0 μg/mL) | Interferon-α induction (interferon-α [2]; dose concentration 5.0 μg/mL) | log reduction at 0.1 µg/mL [4] | log reduction at 0.5 µg/mL [4] | log reduction at 1 µg/mL [4] | further results |
| --- | --- | --- | --- | --- | --- | --- | --- | --- | --- | --- | --- | --- | --- | --- | --- | --- | --- | --- | --- | --- | --- |
| CC(C)Cn1c(CCl)nc2c(N)nc3ccccc3c21.Cl [Example 10, 2-Chloromethyl-1-(2-methylpropyl)-1H-imidazo[4,5-c]quinolin-4-amine Hydrochloride] | <120 Reference Units/mL | <120 Reference Units/mL | <120 Reference Units/mL | <120 Reference Units/mL | <120 Reference Units/mL | <120 Reference Units/mL | <120 Reference Units/mL | <120 Reference Units/mL | <120 Reference Units/mL | <120 Reference Units/mL | <120 Reference Units/mL | 600 Reference Units/mL | <1.3 α Reference Units/mL | 140 α Reference Units/mL | 750 α Reference Units/mL | 750 α Reference Units/mL | 190 α Reference Units/mL | – | – | – | % Lesion Inhibition ([1]; dose 0.5 mg/kg): 29%; Interferon-α induction (interferon-α [2]; dose concentration 0.05 μg/mL): 28 α Reference Units/mL; Interferon-α induction (interferon-α [3]; dose concentration 0.10 μg/mL): <1.5 α Reference Units/mL; Interferon-α induction (interferon-α [3]; dose concentration 0.50 μg/mL): 96 α Reference Units/mL; Interferon-α induction (interferon-α [3]; dose concentration 1.0 μg/mL): 120 α Reference Units/mL; Interferon-α induction (interferon-α [3]; dose concentration 5.0 μg/mL): 120 α Reference Units/mL |
| CC(C)Cn1c(CN2CCCC2)nc2c(N)nc3ccccc3c21 [Example 13, 1-(2-Methylpropyl)-2-pyrrolidinomethyl-1H-imidazo[4,5-c]quinolin-4-amine] | <59 Reference Units/mL | ≦130 Reference Units/mL | <59 Reference Units/mL | 130 Reference Units/mL | 530 Reference Units/mL | ≦100 Reference Units/mL | 230 Reference Units/mL | 400 Reference Units/mL | 130 Reference Units/mL | 700 Reference Units/mL | 1200 Reference Units/mL | 400 Reference Units/mL | – | <1.9 α Reference Units/mL | 10 α Reference Units/mL | 10 α Reference Units/mL | 4 α Reference Units/mL | – | – | – | % Lesion Inhibition ([1]; dose 2 mg/kg): 67% |
| CC(C)Cn1c(C(C)(C)O)nc2c(N)nc3ccccc3c21 [Example 23, 4-Amino-α,α-dimethyl-1-(2-methylpropyl)-1H-imidazo[4,5-c]quinoline-2-methanol] | – | – | – | – | – | – | – | – | – | – | – | – | – | – | – | – | – | – | – | – | Interferon induction in mice (interferon; oral 30 mg/kg, 1 hr): 1200 Reference Units/mL; Interferon induction in mice (interferon; oral 30 mg/kg, 2 hr): 1200 Reference Units/mL; Interferon induction in mice (interferon; oral 30 mg/kg, 4 hr): 140 Reference Units/mL; Interferon-α induction (interferon-α [3]; dose concentration 0.10 μg/mL): <1.8 α Reference Units/mL; Interferon-α induction (interferon-α [3]; dose concentration 0.50 μg/mL): <1.8 α Reference Units/mL; Interferon-α induction (interferon-α [3]; dose concentration 1.0 μg/mL): 84 α Reference Units/mL; Interferon-α induction (interferon-α [3]; dose concentration 5.0 μg/mL): 250 α Reference Units/mL |
| CCOCc1nc2c(N)nc3cc(Cl)ccc3c2n1CC(C)(C)O [Example 85, 4-Amino-7-chloro-α,α-dimethyl-2-ethoxymethyl-1H-imidazo[4,5-c]quinoline-1-ethanol] | 670 Reference Units/mL | 670 Reference Units/mL | <250 Reference Units/mL | ˜980 Reference Units/mL | 3900 Reference Units/mL | ≦330 Reference Units/mL | 1500 Reference Units/mL | 4300 Reference Units/mL | ˜430 Reference Units/mL | 2200 Reference Units/mL | 5700 Reference Units/mL | ˜570 Reference Units/mL | – | 86 α Reference Units/mL | 100 α Reference Units/mL | 220 α Reference Units/mL | 230 α Reference Units/mL | 5 | 5 | 5 | – |
| CC(C)(O)Cn1c(CO)nc2c(N)nc3ccccc3c21 [Example 90, 4-Amino-α,α-dimethyl-2-hydroxymethyl-1H-imidazo[4,5-c]quinoline-1-ethanol] | <74 Reference Units/mL | <74 Reference Units/mL | <74 Reference Units/mL | <74 Reference Units/mL | <74 Reference Units/mL | <74 Reference Units/mL | ≦130 Reference Units/mL | 570 Reference Units/mL | ≦74 Reference Units/mL | 750 Reference Units/mL | 3500 Reference Units/mL | ≦140 Reference Units/mL | <6.4 α Reference Units/mL | 3000 α Reference Units/mL | 640 α Reference Units/mL | 420 α Reference Units/mL | 580 α Reference Units/mL | 5 | 4 | 5 | Interferon-α induction (interferon-α [2]; dose concentration 0.05 μg/mL): 640 α Reference Units/mL |
| CCOCc1nc2c(N)nc3ccccc3c2n1Cc1ccccc1 [Example 93, 2-Ethoxymethyl-1-phenylmethyl-1H-imidazo[4,5-c]quinolin-4-amine] | 400 Reference Units/mL | 360 Reference Units/mL | ≦150 Reference Units/mL | 660 Reference Units/mL | 1500 Reference Units/mL | 340 Reference Units/mL | 1300 Reference Units/mL | 1300 Reference Units/mL | ˜260 Reference Units/mL | 2100 Reference Units/mL | 2900 Reference Units/mL | 630 Reference Units/mL | – | 850 α Reference Units/mL | 280 α Reference Units/mL | 300 α Reference Units/mL | 300 α Reference Units/mL | 0 | 5 | 5 | – |
| COCc1nc2c(N)nc3ccccc3c2n1CC(C)(C)O [Example 96, 4-Amino-α,α-dimethyl-2-methoxymethyl-1H-imidazo[4,5-c]quinoline-1-ethanol] | 2900 Reference Units/mL | 3400 Reference Units/mL | 620 Reference Units/mL | 3200 Reference Units/mL | 5000 Reference Units/mL | 1100 Reference Units/mL | 3000 Reference Units/mL | 10000 Reference Units/mL | 960 Reference Units/mL | 2900 Reference Units/mL | 4700 Reference Units/mL | ˜350 Reference Units/mL | <6.4 α Reference Units/mL | 1200 α Reference Units/mL | 460 α Reference Units/mL | 1000 α Reference Units/mL | 900 α Reference Units/mL | 6 | 5 | 5 | Interferon-α induction (interferon-α [2]; dose concentration 0.05 μg/mL): 44 α Reference Units/mL |
